Results on four compounds are retold here after patent publication US7488743B2, “Indolin-2-one pyridine derivatives, preparation and therapeutic use thereof” (Sanofi-Aventis, priority 2004, dated 2009).

Structures can show the parent of a compound that is named as a salt.

Data set [1] deals with T1, human uterine oxytocin receptors (Homo sapiens, UniProt P30559).
T1 construct: host or cells: membrane preparation
T1 sequence (P30559 1-389): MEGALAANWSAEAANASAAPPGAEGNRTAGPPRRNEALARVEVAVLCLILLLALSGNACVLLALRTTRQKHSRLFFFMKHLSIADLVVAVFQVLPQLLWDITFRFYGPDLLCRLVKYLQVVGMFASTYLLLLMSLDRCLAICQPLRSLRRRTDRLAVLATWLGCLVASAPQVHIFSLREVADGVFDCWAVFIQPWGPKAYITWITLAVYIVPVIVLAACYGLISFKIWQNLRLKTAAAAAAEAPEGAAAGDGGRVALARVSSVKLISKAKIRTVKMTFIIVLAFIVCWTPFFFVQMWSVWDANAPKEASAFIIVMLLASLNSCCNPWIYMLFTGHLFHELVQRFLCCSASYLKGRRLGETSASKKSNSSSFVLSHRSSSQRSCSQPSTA
In words: in vitro binding test: displacement of a radioiodinated oxytocin analog in a membrane preparation. To be noted: read-out: IC50 (concentration which inhibits 50% of the binding of the radioiodinated oxytocin analog to its receptors). The method, then: The compounds according to the invention have formed the subject of biochemical and pharmacological studies. The affinity of the compounds according to the invention for oxytocin receptors was determined in an in vitro binding test using the method described by J. Elands et al., Eur. J. Pharmacol. (1987), 147, pp. 197-207. This method consists in studying in vitro the displacement of a radioiodinated oxytocin analog at the oxytocin receptors in a membrane preparation of human uterine oxytocin receptors. The IC50 values (concentration which inhibits 50% of the binding of the radioiodinated oxytocin analog to its receptors) are low and vary from 10^−10 to 10^−6 M in the latter test.

The target of data set [2] is T2, cells expressing human oxytocin receptors (Homo sapiens, UniProt P30559).
T2 sequence (P30559 1-389): T1 sequence (P30559 1-389)
The data set is described as follows: measurement of intracellular calcium (agonist or antagonist nature). The data set is classed as cell-based. The method, then:
The agonist or antagonist nature of the compounds is determined in vitro in a test for the measurement of intracellular calcium with respect to cells expressing human oxytocin receptors according to the general technique described in Am. J. Physiol., 268, and Heart Circ. Physiol. (1995), 37, H404-H410.

In data set [3] the target is human vasopressin V1a receptors (Homo sapiens, UniProt P37288). The data set is described as follows: affinity for vasopressin V1a receptors (method of Thibonnier et al.). The data set is classed as binding. To be noted: tested at a concentration of 1 μM; read-out: percentage of inhibition on V1a receptors. The text has this: (§1) The affinity of these compounds for human vasopressin V1a receptors (method described by M. Thibonnier et al. in J. Biol. Chem. (1994), 269, pp. 3304-3310), V1b receptors (method described by T. Sugimoto et al. in J. Biol. Chem. (1994), 269, pp. 27088-27092) and V2 receptors (method described by T. Birnbaumer et al. in Nature (Lond.) (1992), 357, pp. 333-335) has also been studied. The compounds studied have little or no affinity for the V1a, V1b and V2 receptors.

The target in data set [4] is T3, human vasopressin V1b receptors (Homo sapiens, UniProt P47901).
T3 sequence (P47901 1-424): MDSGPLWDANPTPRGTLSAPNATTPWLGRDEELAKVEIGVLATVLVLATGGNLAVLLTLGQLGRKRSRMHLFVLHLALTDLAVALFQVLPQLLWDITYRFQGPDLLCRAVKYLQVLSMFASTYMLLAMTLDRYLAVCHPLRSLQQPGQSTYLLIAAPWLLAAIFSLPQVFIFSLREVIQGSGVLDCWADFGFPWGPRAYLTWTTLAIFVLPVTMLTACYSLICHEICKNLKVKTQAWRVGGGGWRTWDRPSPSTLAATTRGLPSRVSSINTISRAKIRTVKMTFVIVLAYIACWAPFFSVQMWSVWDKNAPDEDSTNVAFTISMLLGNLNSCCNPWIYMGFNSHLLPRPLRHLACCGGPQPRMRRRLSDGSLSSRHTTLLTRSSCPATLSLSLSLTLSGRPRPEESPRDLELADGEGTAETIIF
In words: affinity for vasopressin V1b receptors (method of Sugimoto et al.). To be noted: tested at a concentration of 1 μM; read-out: percentage of inhibition on V1b receptors. The data set is classed as binding.
Text: as §1

Data set [5] concerns the target human vasopressin V2 receptors (Homo sapiens, UniProt P30518). The data set is described as follows: affinity for vasopressin V2 receptors (method of Birnbaumer et al.). The data set is classed as binding. To be noted: tested at a concentration of 1 μM; read-out: percentage of inhibition on V2 receptors.
Text: as §1

Sequence of human vasopressin V1a receptors (P37288 whole entry): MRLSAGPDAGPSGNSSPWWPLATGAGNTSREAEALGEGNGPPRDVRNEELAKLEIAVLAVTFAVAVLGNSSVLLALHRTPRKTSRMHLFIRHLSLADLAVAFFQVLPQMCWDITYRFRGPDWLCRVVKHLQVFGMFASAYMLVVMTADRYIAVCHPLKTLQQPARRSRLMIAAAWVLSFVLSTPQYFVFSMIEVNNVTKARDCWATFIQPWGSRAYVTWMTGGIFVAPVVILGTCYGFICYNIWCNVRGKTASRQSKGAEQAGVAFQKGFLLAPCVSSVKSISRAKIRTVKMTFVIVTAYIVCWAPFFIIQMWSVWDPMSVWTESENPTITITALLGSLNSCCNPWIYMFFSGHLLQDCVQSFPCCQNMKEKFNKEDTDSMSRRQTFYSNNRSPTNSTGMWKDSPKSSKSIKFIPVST
Sequence of human vasopressin V2 receptors (P30518 whole entry): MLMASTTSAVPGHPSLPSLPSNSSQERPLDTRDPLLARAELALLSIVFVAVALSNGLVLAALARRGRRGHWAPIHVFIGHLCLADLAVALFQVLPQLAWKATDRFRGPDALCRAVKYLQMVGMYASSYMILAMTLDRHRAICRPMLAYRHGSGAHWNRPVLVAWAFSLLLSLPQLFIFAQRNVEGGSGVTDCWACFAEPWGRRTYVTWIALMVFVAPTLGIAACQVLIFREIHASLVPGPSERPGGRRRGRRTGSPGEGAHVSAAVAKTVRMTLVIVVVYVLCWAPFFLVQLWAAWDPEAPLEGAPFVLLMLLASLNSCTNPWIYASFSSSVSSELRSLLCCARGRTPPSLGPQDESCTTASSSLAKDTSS

By melting point is commonly meant the temperature, or range, at which the solid turns liquid. For the compound `CCN(Cc1ccc[n+]([O-])c1)C(=O)c1ccc(Cl)c(C2(C)C(=O)N(Cc3ccc(OC)cc3OC)c3ccc(Cl)cc32)c1` (centres unmarked) (as salt: hydrochloride) [example 7, 4-chloro-3-[5-chloro-1-(2,4-dimethoxybenzyl)-3-methyl-2-oxo-2,3-dihydro-1H-indol-3-yl]-N-ethyl-N-(1-oxypyrid-3-ylmethyl)benzamide hydrochloride], the melting point was 176 °C.

Take `CCN(Cc1ccc[n+](CC(=O)O)c1)C(=O)c1ccc(Cl)c(C2(C)C(=O)N(Cc3ccc(OC)cc3OC)c3ccc(Cl)cc32)c1` (centres unmarked) [example 2, 1-Carboxymethyl-3-[({4-chloro-3-[5-chloro-1-(2,4-dimethoxybenzyl)-3-methyl-2-oxo-2,3-dihydro-1H-indol-3-yl]benzoyl}(ethyl)amino)methyl]pyridinium chloride]: in data set [1], the IC50 was 6.9 nM.

For `CCN(Cc1ccc[n+]([C@@H]2O[C@H](C(=O)O)[C@@H](O)[C@H](O)[C@H]2O)c1)C(=O)c1ccc(Cl)c(C2(C)C(=O)N(Cc3ccc(OC)cc3OC)c3ccc(Cl)cc32)c1` (stereo partly drawn) [example 3, 1-(β-D-Glucopyranuronosyl)-3-[({4-chloro-3-[5-chloro-1-(2,4-dimethoxybenzyl)-3-methyl-2-oxo-2,3-dihydro-1H-indol-3-yl]benzoyl}(ethyl)amino)methyl]pyridinium chloride], in data set [2], the IC50 came to 3 nM and the “agonist or antagonist nature” value is recorded as “antagonist”.

By inhibition is commonly meant how much of the control response was suppressed. In the case of `CCN(Cc1ccc[n+]([O-])c1)C(=O)c1ccc(Cl)c(C2(C)C(=O)N(Cc3ccc(OC)cc3OC)c3ccc(Cl)cc32)c1` (centres unmarked) [example 7, 4-chloro-3-[5-chloro-1-(2,4-dimethoxybenzyl)-3-methyl-2-oxo-2,3-dihydro-1H-indol-3-yl]-N-ethyl-N-(1-oxypyrid-3-ylmethyl)benzamide hydrochloride], the inhibition at 1 µM in data set [3], in data set [4] and in data set [5] was under 50% in each case. For the same compound, in data set [1], the IC50 is under 50 nM.
